Assay results reported in patent US20150342968A1, “STABLE PHARMACEUTICAL COMPOSITION FOR TREATING OSTEOPOROSIS” (LANDSTEINER SCIENTIFIC S.A. DE C.V., priority 2012, published 2015).
Where “and” joins values, the source holds several entries; their conditions need not be identical. Equal entries are not always repeated.

Key:
[1] = Dissolution buffer stage pH 6.8 of tablets of composition in Table 1; type: physicochemical
Description: (§1) Two stability tests of vitamin D3 and risedronate sodium were performed at different conditions by subjecting the tablets that were prepared according to the composition in Table 1. The conditions were as follows:
It is evident that the risedronate sodium dissolves quickly in a medium with pH 6.8, obtaining more than 100% in the first 10 minutes.

[2] = cited from earlier work
[3] = Evaluation of the stability of risedronate sodium in tablets of composition in Table 1; type: physicochemical
Description: as §1
(§2) Two batches of the composition were subjected to different conditions to evaluate the stability of vitamin D3 and risedronate sodium. The conditions were the following: 30° C./65% RH, 40° C./75% RH and Cycled 40° C./75% RH-Cooling (2°-8° C.). The samples were submitted for 4 weeks and the following results were obtained.
Evaluation of the Stability of Risedronate Sodium

[4] = cited from earlier work; remark: listed apart in the source
[5] = Dissolution acid stage (gastro-resistance) of tablets of composition in Table 1; type: physicochemical
Description: as §1
The product complies with the gastro-resistant stage, because it has an enteric coating to protect the mucous membranes while it passes through the gastrointestinal system.

[6] = Evaluation of the stability of vitamin D3 in tablets of composition in Table 1; type: physicochemical
Description: as §1
Evaluation Of The Stability Of Vitamin D3
as §2

SMILES: O=P(O)(O)C(O)(Cc1cccnc1)P(=O)(O)O [Risedronate sodium, risedronate sodium]
- Dissolution buffer stage, dissolved ([1]; pH 6.8, 5 min): 94.08%
- Dissolution buffer stage, dissolved ([1]; pH 6.8, 10 min): more than 100%
- Dissolution buffer stage, dissolved ([1]; pH 6.8, 10 min, listed as Risedronate Sodium 35 mg): 100.93%
- Dissolution buffer stage, dissolved ([1]; pH 6.8, 15 min): 100.84%
- Dissolution buffer stage, dissolved ([1]; pH 6.8, 20 min): 100.94%
- Dissolution buffer stage, dissolved ([1]; pH 6.8, 30 min): 100.12%
- Dissolution buffer stage, dissolved ([1]; pH 6.8, 45 min): 100.48%
- injected dose recovered in the urine ([2]; after 28 days): 85%
- Tmax ([2]; after an oral dose): ~1 h
- part of the absorbed dose excreted in the urine ([2]; first 24 hours): One half
- mean volume of distribution at steady state equilibrium ([2]; humans): 6.3 L/kg
- Risedronate sodium stability, Final ([3]; Test 1, final (4 weeks)): 100.66%
- Risedronate sodium stability, Initial ([3]; Test 1, initial): 102.55%
- Risedronate sodium stability, Final ([3]; Test 2, final (4 weeks)): 96.75%
- Risedronate sodium stability, Initial ([3]; Test 2, initial): 100.99%
- plasmatic protein binding [4]: 24%
- Risedronate sodium Acid Stage % Dissolved ([5]; individual samples S1-S6, specification no more than 10.0%): 0.97% and 0.56% and 0.80% and 0.95% and 1.19% and 0.71%
- Risedronate sodium Acid Stage % Dissolved, Maximum ([5]; maximum of S1-S6): 1.19%
- Risedronate sodium Acid Stage % Dissolved, Mean ([5]; mean of S1-S6): 0.86%
- Risedronate sodium Acid Stage % Dissolved, Minimum ([5]; minimum of S1-S6): 0.56%

SMILES: C=C1CC[C@H](O)C/C1=C/C=C1\CCC[C@]2(C)[C@@H]([C@H](C)CCCC(C)C)CC[C@@H]12 [Vitamin D3, cholecalciferol]
- Vitamin D3 rating (stability) ([6]; Test 1, week 0, 30° C./65% RH): 100.00%
- Vitamin D3 rating (stability) ([6]; Test 1, week 0, 40° C./75% RH): 100.00%
- Vitamin D3 rating (stability) ([6]; Test 1, week 0, Cycled 40° C./75% RH-cooling): 100.00%
- Vitamin D3 rating (stability) ([6]; Test 1, week 1, 30° C./65% RH): 102.02%
- Vitamin D3 rating (stability) ([6]; Test 1, week 1, 40° C./75% RH): 98.34%
- Vitamin D3 rating (stability) ([6]; Test 1, week 1, Cycled 40° C./75% RH-cooling): 98.69%
- Vitamin D3 rating (stability) ([6]; Test 1, week 2, 30° C./65% RH): 99.20%
- Vitamin D3 rating (stability) ([6]; Test 1, week 2, 40° C./75% RH): 98.12%
- Vitamin D3 rating (stability) ([6]; Test 1, week 2, Cycled 40° C./75% RH-cooling): 97.90%
- Vitamin D3 rating (stability) ([6]; Test 1, week 4, 30° C./65% RH): 96.39%
- Vitamin D3 rating (stability) ([6]; Test 1, week 4, 40° C./75% RH): 96.03%
- Vitamin D3 rating (stability) ([6]; Test 1, week 4, Cycled 40° C./75% RH-cooling): 96.09%
- Vitamin D3 rating (stability) ([6]; Test 2, week 0, 30° C./65% RH): 100.00%
- Vitamin D3 rating (stability) ([6]; Test 2, week 0, 40° C./75% RH): 100.00%
- Vitamin D3 rating (stability) ([6]; Test 2, week 0, Cycled 40° C./75% RH-cooling): 100.00%
- Vitamin D3 rating (stability) ([6]; Test 2, week 1, 30° C./65% RH): 97.34%
- Vitamin D3 rating (stability) ([6]; Test 2, week 1, 40° C./75% RH): 99.62%
- Vitamin D3 rating (stability) ([6]; Test 2, week 1, Cycled 40° C./75% RH-cooling): 95.55%
- Vitamin D3 rating (stability) ([6]; Test 2, week 2, 30° C./65% RH): 96.93%
- Vitamin D3 rating (stability) ([6]; Test 2, week 2, 40° C./75% RH): 97.80%
- Vitamin D3 rating (stability) ([6]; Test 2, week 2, Cycled 40° C./75% RH-cooling): 96.31%
- Vitamin D3 rating (stability) ([6]; Test 2, week 4, 30° C./65% RH): 94.79%
- Vitamin D3 rating (stability) ([6]; Test 2, week 4, 40° C./75% RH): 96.32%
- Vitamin D3 rating (stability) ([6]; Test 2, week 4, Cycled 40° C./75% RH-cooling): 94.79%
- decrease in the vitamin D3 rating ([6]; over the four weeks under the different conditions): 5.96%
